# Source: ChEMBL document CHEMBL1201862, “PubChem BioAssay data set” (2004)
#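 How tested: cells in 96-well plates exposed to compound for 48 hours at five concentrations. Abbreviation: GI50, concentration required for 50% inhibition of growth.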 Calls of active or inactive are those of the source. Cut-off read from the data, not from the text of the source: active = GI50 up to about 1.1 µM and inactive = higher.
# Columns and labels:
# Assay in all cases: NCI anticancer screen, dose series, 48 h
# CCRF-CEM = system: CCRF-CEM
# DMS-114 = system: DMS-114
# DMS-273 = system: DMS-273
# HL-60 = system: HL-60
# HOP-62 = system: HOP-62
# IGROV-1 = system: IGROV-1
# K562 = system: K562
# KM-20L2 = system: KM-20L2
# LOX IMVI = system: LOX IMVI
# NCI-H226 = system: NCI-H226
# NCI-H460 = system: NCI-H460
# NCI-H522 = system: NCI-H522
# OVCAR-3 = system: OVCAR-3
# OVCAR-4 = system: OVCAR-4
# SF-539 = system: SF-539
# SNB-19 = system: SNB-19
# SNB-75 = system: SNB-75
# SNB-78 = system: SNB-78
# U-251 = system: U-251
# UO-31 = system: UO-31
Compound,GI50 (CCRF-CEM),GI50 (DMS-114),GI50 (DMS-273),GI50 (HL-60),GI50 (HOP-62),GI50 (IGROV-1),GI50 (K562),GI50 (KM-20L2),GI50 (LOX IMVI),GI50 (NCI-H226),GI50 (NCI-H460),GI50 (NCI-H522),GI50 (OVCAR-3),GI50 (OVCAR-4),GI50 (SF-539),GI50 (SNB-19),GI50 (SNB-75),GI50 (SNB-78),GI50 (U-251),GI50 (UO-31)
Cc1ccc(S(=O)(=O)Oc2cc(-c3ccccc3)nc3ccccc23)cc1,2.89 µM (inactive),0.333 µM (active),1.04 µM (active),1.03 µM (active),3.73 µM (inactive),3.85 µM (inactive),0.869 µM (active),1.57 µM (inactive),8.97 µM (inactive),6.4 µM (inactive),1.81 µM (inactive),1.13 µM (inactive),2.12 µM (inactive),7.33 µM (inactive),2.08 µM (inactive),0.419 µM (active),1.92 µM (inactive),7.08 µM (inactive),2.51 µM (inactive),6.3 µM (inactive)
COc1ccc(/C(Cl)=C(\C=O)c2ccc(Cl)cc2)cc1,2.94 µM (inactive),4.15 µM (inactive),4.34 µM (inactive),3.46 µM (inactive),19.4 µM (inactive),7.71 µM (inactive),3.81 µM (inactive),6.41 µM (inactive),3.45 µM (inactive),6.35 µM (inactive),3.81 µM (inactive),2.19 µM (inactive),4.68 µM (inactive),8.61 µM (inactive),9.16 µM (inactive),7.01 µM (inactive),4.27 µM (inactive),6.85 µM (inactive),3.79 µM (inactive),4.71 µM (inactive)
Cc1cn([C@@H]2C[C@H](CO)[C@@H](O)C2)c(=O)[nH]c1=O,> 100 µM (inactive),> 100 µM (inactive),> 100 µM (inactive),> 100 µM (inactive),> 100 µM (inactive),> 100 µM (inactive),> 100 µM (inactive),> 100 µM (inactive),> 100 µM (inactive),> 100 µM (inactive),> 100 µM (inactive),> 100 µM (inactive),> 100 µM (inactive),> 100 µM (inactive),> 100 µM (inactive),> 100 µM (inactive),78.9 µM (inactive),> 100 µM (inactive),> 100 µM (inactive),> 100 µM (inactive)
